{"source": "patent US20240382509A1", "about": "“Cannabinoids C- and O-glycosides possessing anti-proliferative and anti-metastatic properties and process for preparation thereof” (Council of Scientific and Industrial Research, priority 2021, published 2024)", "key": {"[1]": {"tested_on": "4T1 mouse mammary carcinoma cells", "test": "4T1 allograft breast cancer model, anti-tumor and anti-metastatic efficacy", "format": "in vivo", "protocol": "In vivo anti-metastatic and anti-tumor efficacy studies. 4T1 mouse mammary carcinoma cells is a highly aggressive cell line that forms tumors when grafted in Balb/c mice. […] All the in vivo experimental protocols were approved by the Institutional Animal Ethics Committee, CPCSEA, of the Indian Institute of Integrative Medicine, Jammu. The animals were maintained at 22° C. with a 12 h light-dark cycle and free access to feed and water inside the institutional animal house. Proper care was taken to maintain them in a healthy condition and to avoid any risk of possible pathogenic contaminations. For subcutaneous implantation of 4T1 cells, the Balb/c mice were distributed into four groups bearing five mice in each group. For tumor induction, 1.5 million 4T1 cells were suspended in serum-free media and injected into the mammary pad of the animal and kept in the animal house for tumor induction. After the tumor reached an adequate size (30-150 mm^3) the mice in the allotted groups were treated with vehicle (normal saline), 15 and 30 mg/kg 2a & 30 mg/kg DIM (positive control) for every alternate day and was continued for two weeks. After the treatment, the mice were sacrificed by cervical dislocation, and the tumor was dissected out from the mammary pad, the tumor volume was measured, and images were taken. Subsequently, to examine the anti-metastatic property of the compound 2a, the chest cavity was dissected to remove the lungs, and after washing with PBS, the metastatic nodules in the lung due to 4T1 migration were checked and subsequently counted.\nThe anti-proliferative as well as anti-metastatic role of compound 2a was studied in 4T1 allograft breast cancer model. Briefly, 1.5×10^6 4T1 mammary breast cancer cells were injected in mouse mammary pad and kept undisturbed until the formation of tumor. Subsequently, the mice were treated with 15 and 30 mg/kg of compound 2a along with a positive control 30 mg/kg di-indoyl methane (DIM) molecule and normal saline as vehicle. The drugs were administered intraperitonially for each alternate day for 2 weeks. The animals were sacrificed and tumours were harvested from the mammary pad and tumor weight was measured (FIG. 7a & b). Moreover, the lungs were also removed and photographed to study the presence of metastatic patches. […] Furthermore, the tumors were subjected to tissue lysis and immunoblot analysis was performed to study the expression of Snail-1. Twist-1, STAT-3, Vimentin and E-cadherin."}, "HCT-116 cells [2]": {"tested_on": "HCT-116 cells", "test": "MTT cell viability assay, HCT-116", "format": "cell-based", "details": "Homo sapiens, HCT-116, 48 h, read-out: Cytotoxicity (IC50) HCT-116, MTT, 48 h; colorectal adenocarcinoma cells", "protocol": "(§1) Cell viability assay: The cell viability was determined by the standard MTT assay method. Briefly, Panc-1, HCT-116, A549, PC3, MIAPaca-2, HT-29, MDA-MB-231, MCF7 cells, and fR2cells were seeded in 96 well tissue culture plates (Nunc) at a density of 4×10^3 cells per well and treated with varying concentrations of the test compounds in triplicates. DMSO was taken as a vehicle, and its final concentration was maintained at 0.2% in the culture medium. Doxorubicin was employed as a positive control. After 44 h of incubation, MTT dye solution was added into the medium, and cells were incubated for another 4 h at 37° C. in 5% CO2. The amount of colored formazan derivatives formed was measured by taking optical density (OD) using a microplate reader (TECAN, Infinite M200 Pro) at 570 nm, and the percentage of cell viability was calculated. The IC50 values were calculated using GraphPad Prism software (Version 5.0)."}, "HCT-116 cells [3]": {"tested_on": "HCT-116 cells", "test": "Chromosome isolation and staining (chromosomal stability)", "format": "cell-based", "details": "HCT-116, 2a in combination with 5FU, compared to vehicle/750 nM 5FU/3 μM 2a", "source_text": "The effect of the compound 2a in combination with DNA damaging drug 5-Fluorouracil in colon adenocarcinoma cells was studied. […] Consequently, the major repair factor RAD-51 got diminished as compared to 5FU alone treated lane. The immunoblot results also depicted the downmodulation of cellular survival factor BCL-2 and subsequent upregulation of proapoptotic protein Bax (FIG. 8a). […] Moreover, the effect of the combinatorial treatment on chromosomal stability in HCT-116 cells by chromosome isolation and staining was studied."}, "MIAPaCa-2 cells": {"tested_on": "MIAPaCa-2 cells", "test": "MTT cell viability assay, MIAPaCa-2", "format": "cell-based, human", "details": "Homo sapiens, MIA PaCa-2, 48 h, read-out: Cytotoxicity (IC50) MIAPaCa-2, MTT, 48 h", "protocol": "as §1"}, "[4]": {"tested_on": "Snail-1, Twist-1, Vimentin and E-cadherin in MIAPaCa-2 cells", "test": "Western blot of EMT markers", "format": "cell-based, human", "details": "36 h, immunoblot", "protocol": "Western Blot analysis. Briefly, MIAPaCa-2 cells were seeded in a 60 mm petri dish and maintained up to 70% confluency; afterward, the cells were treated with compound 2a (0.5, 1.5, 3 & 5 μM) for 36 h. After treatment, the cells were harvested washed thrice with ice-cold PBS and were subjected to protein lysis with lysis buffer (HEPES 1 mM/L, KCl 60 mM/L, NP-40 0.3%, EDTA 1 mM/L, DTT 1 mM/L, sodium orthovanadate 1 mM/L, PMSF 0.1 mM/L and cocktail protease inhibitor). The lysis product was centrifuged at 12000 rpm for 15 min at 4° C. to remove the cellular debris, and the supernatants were collected. Total protein was estimated with the help of the Bradford method. An equal amount of protein was subjected to SDS-PAGE, and consequently, after the protein was separated on SDS-PAGE based on their molecular weight, they were transferred onto the PVDF membrane. The membrane was blocked with 5% BSA and incubated in primary antibody prepared in 5% BSA (dilution ranging from 1:1000-1:2000) for 2-3 h. […] After washing with TBST, the protein expression was quantified by adding a chemiluminescent substrate on the membrane, and the signal obtained was captured in Biomax light x-ray films.\nNow this particular derivative was further analysed for its ability to inhibit the molecular signatures of EMT. […]"}, "[5]": {"details": "tumor lysate immunoblot, 30 mg/kg"}}}
{"smiles": "CCCCCc1cc(O[C@@H]2OC(CO)[C@@H](O)C(O)C2O)c2c(c1)OC(C)(C)[C@@H]1CCC(C)=C[C@@H]21", "note": "(stereo partly drawn) [Compound 2a, Δ^9-tetrahydrocannabinol-1-O-β-D-glucopyranoside]", "values": [{"measurement": "metastatic white patches on lungs", "setting": "[1]; Balb/c mice, 4T1, 15 & 30 mg/kg intraperitoneal, alternate day for 2 weeks", "result": "white patches were not observed"}, {"measurement": "tumor weight", "setting": "[1]; Balb/c mice, 4T1, 15 and 30 mg/kg intraperitoneal, alternate day for 2 weeks, vs normal saline", "result": "drastically reduced"}, {"measurement": "tumor E-cadherin level", "setting": "[1]; [5]", "result": "increased considerably"}, {"measurement": "tumor expression of Twist-1", "setting": "[1]; [5]", "result": "curbed"}, {"measurement": "tumor expression of Snail-1, STAT-3 and Vimentin", "setting": "[1]; tumor lysate immunoblot, 15 and 30 mg/kg", "result": "decreases significantly"}, {"measurement": "IC50", "setting": "HCT-116 cells [2]", "result": 2.1, "unit": "µM"}, {"measurement": "chromosomal aberrations", "setting": "HCT-116 cells [3]", "result": "significantly increases chromosomal abbreations"}, {"measurement": "IC50", "setting": "MIAPaCa-2 cells", "result": 1.42, "unit": "µM"}, {"measurement": "expression of Snail-1, Twist-1 and Vimentin", "setting": "[4]; MIAPaCa-2, 0.5, 1.5, 3 and 5 μM", "result": "significant down modulation"}, {"measurement": "expression of E-cadherin", "setting": "[4]; MIAPaCa-2, from 1.5 to 5 μM", "result": "upregulated"}]}
